Several values for one entry are separate records, joined by “and”; a condition that tells them apart may be missing. Identical values can stand only once.
What was measured:
porcine oocytes [1] = assay: Oocyte mitochondrial temperature detection (Mito Thermo Yellow probe fluorescence); format: cell-based
Experimental: (§1) 100 nM Mito Thermo Yellow dye was added in TL-HEPES-0.3% BSA solution and preheated for 15 min at 37° C. in an incubator containing 5% CO2, the oocytes were moved into the preheated dye solution in the incubator for 15 min and then washed three times with TL-HEPES-0.3% BSA for 10 min each time, the fluorescence intensity was detected by laser confocal microscopy, and the changes of mitochondrial temperature were analyzed.
Metformin can effectively reduce mitochondrial heat production.

porcine oocytes [2] = assay: Parthenogenetic activation of oocytes (cleavage and blastocyst development)
Experimental: After the first polar body was extruded, mature oocytes with uniform cytoplasm were selected for parthenogenetic activation. The oocytes were washed three times with a pre-heated electro-activation solution, and then the oocytes were placed between electrodes filled with the activation solution, the electro-activation solution was 0.3 M mannitol, 0.05 mM CaCl2, 0.1 mM MgCl2, and 0.4% (m/v) bovine serum albumin dissolved in water. An electric fusion meter (Fujihira Industry Co. Ltd, Tokyo, Japan) was used for electrical activation, the electric field intensity was 65 V/mm, the DC pulse duration was 80 μs, and the number of pulses was 1. The activated oocytes were cultured in PZM-3 containing 5 μg/mL cytochalasin B and 10 μg/mL cycloheximide at 38.5° C., 5% CO2 for 4 h. Then the oocytes were washed and cultured in PZM-3 (day 0). The number of cleavage embryos was counted on day 2 and blastocyst formation was recorded on day 7.

[3] = system: vitrified porcine oocytes; assay: Survival rate detection of vitrified oocytes after thawing (FDA staining); format: cell-based; settings: freezing group 71.85%
Experimental: The room temperature was adjusted to 25±1° C. so that the test apparatus and reagents were fully balanced, the experiment was carried out on a 37° C. thermostat, the oocytes were transferred into 20% EG solution for 3 min, and then transferred into the vitrification solution EDFS40 for 30-40 s, the oocytes were then placed on the cryocarrier Cryotop. […] When thawing the oocytes, the Cryotop was taken out from liquid nitrogen, and the oocytes were immediately immersed in PBS containing 1M sucrose (containing 20% FBS) on a thermostatic table (37° C.) for 1 min, and then transferred to PBS containing 0.5M and 0.25M sucrose (containing 20% FBS) for 3 min, and then placed in PBS containing 20% FBS for recovery for 5 min, and then washed three times with mature medium and placed in mature medium for recovery for 2 hours. • (1) Survival Rate Detection of Oocytes after Thawing
The survival rate of oocytes was detected by FDA (fluorescein diacetate) staining. The collected oocytes were incubated in TL-HEPES-0.3% BSA solution containing 2.5 μg/mL FDA for 1 min and then washed three times with TL-HEPES-0.3% BSA solution, the oocytes were placed on a petri dish and observed using a fluorescence microscope, the oocytes with green fluorescence were considered to be alive.

porcine oocytes [4] = assay: Oocyte membrane fluidity detection by FRAP; format: cell-based; settings: metformin pretreatment; P<0.05
Experimental: The membrane fluidity of oocytes was detected by fluorescence recovery after photobleaching (FRAP). The oocytes were first placed in TL-HEPES-0.3% BSA solution containing cell membrane fluorescent probe Dil, and incubated at 37° C. in the incubator containing 5% CO2 for 10 min. After incubation, the oocytes were washed three times within TL-HEPES-0.3% BSA solution, and then the oocytes were placed in a confocal dish. FRAP experiments were performed on a confocal microscope. Firstly, a bleaching area was selected, and three fluorescence images were collected before bleaching, with an interval of 5 s for each image. The bleaching fluorescence intensity was 100%, and the bleaching time was 7.93 s. Recovery time was 3 min after bleaching, and fluorescence images were collected at 5 s intervals. The fluorescence intensity of the bleaching area was statistically analyzed and the data were normalized.

vitrified oocytes [5] = assay: Mitochondrial temperature of vitrified oocytes after thawing (MTY probe); format: cell-based, porcine; settings: metformin pretreatment before freezing; P<0.01
Experimental: as §1
The room temperature was adjusted to 25±1° C. so that the test apparatus and reagents were fully balanced, the experiment was carried out on a 37° C. thermostat, the oocytes were transferred into 20% EG solution for 3 min, and then transferred into the vitrification solution EDFS40 for 30-40 s, the oocytes were then placed on the cryocarrier Cryotop. […]
The effect of metformin pretreatment on the mitochondrial temperature of vitrified oocytes was further analyzed.

vitrified oocytes [6] = assay: Ultrastructural observation of lipid droplets in oocytes (TEM); format: cell-based, porcine; settings: metformin pretreatment
Experimental: The oocytes were washed with DPBS and fixed overnight at 4° C. in a 0.1M dimethylarsenate buffer containing 2.5% (m/v) glutaraldehyde. After washing with DPBS, oocytes were fixed with 1% osmic acid, then washed with DPBS, and dehydrated in a gradient of 30%, 50%, 70%, 80%, 90%, and 100% acetone. The epoxy resin SPURR was used for embedding-polymerization, and the LKB-V slicing machine (ultra-thin slice thickness 50 nm (diamond knife)) was used for slicing, and then the double staining of uranium acetate-lead citrate was carried out on the copper mesh of the electron microscope, the copper mesh containing the sample was dried in a glass dish overnight, and the image was collected using a transmission electron microscope (TEM) at 80 kv (HITACHI, New Bio-TEM H-7500, Japan).

[7] = rotenone-treated group vs control group, after parthenogenetic activation, P<0.01
[8] = 1 μM UK5099 vs control group, after parthenogenetic activation
[9] = 2 μM UK5099 vs control group, after parthenogenetic activation
[10] = UK5099 0.5 μM, 1 μM, 2 μM, 4 μM

C=C(C)[C@H]1Cc2c(ccc3c2O[C@@H]2COc4cc(OC)c(OC)cc4[C@@H]2C3=O)O1 [rotenone]
mitochondrial temperature (porcine oocytes [1]; 1 μM rotenone treatment for 1 h, P<0.01): significantly reduced
blastocyst development rate (porcine oocytes [2]; [7]): significantly decreased
cleavage rate (porcine oocytes [2]; [7]): significantly decreased
cytotoxicity (porcine oocytes [2]; summary statement on rotenone): greater cytotoxicity

CC[C@H]1/C=C/C=C/C[C@@H](C)[C@H](O)[C@@](C)(O)C(=O)[C@@H](C)[C@H](O)[C@@H](C)C(=O)[C@@H](C)[C@H](O)[C@@H](C)/C=C/C(=O)O[C@@H]2[C@H](C)[C@H](CC1)O[C@]1(CC[C@H](C)[C@H](C[C@@H](C)O)O1)[C@H]2C [oligomycin]
mitochondrial temperature (porcine oocytes [1]; 0.5 μM oligomycin treatment for 1 h, P<0.01): significantly reduce
mitochondrial temperature (porcine oocytes [1]; 1.5 μM oligomycin treatment for 1 h, P<0.01): significantly reduce
mitochondrial temperature (porcine oocytes [1]; 2.5 μM oligomycin treatment for 1 h, P<0.01): significantly reduce
blastocyst development rate (porcine oocytes [2]; 0.5 μM oligomycin vs control group): significantly lower
blastocyst development (porcine oocytes [2]; 1.5 μM oligomycin vs control group, P<0.01): significantly lower
blastocyst development (porcine oocytes [2]; 2.5 μM oligomycin vs control group, P<0.01): significantly lower
cleavage rate (porcine oocytes [2]; different concentrations of oligomycin vs control group, parthenogenetic activation, P<0.01): significantly lower
Survival rate (%) ([3]; oligomycin pretreatment before vitrification, P<0.05): 29.79%
Survival rate (%) ([3]; oligomycin pretreatment before vitrification, P<0.05, listed as Oligomycin): 29.79^c(56/188) %

N#C/C(=C\c1cn(-c2ccccc2)c2ccccc12)C(=O)O [UK5099]
mitochondrial temperature (porcine oocytes [1]; 1 μM UK5099 treatment for 1 h, P<0.05): significantly reduced
mitochondrial temperature (porcine oocytes [1]; 2 μM UK5099 treatment for 1 h, P<0.01): significantly reduced
blastocyst rate (porcine oocytes [2]; [8]): not significantly different
cleavage rate (porcine oocytes [2]; [8]): not significantly different
blastocyst rate (porcine oocytes [2]; [9]): not significantly different
cleavage rate (porcine oocytes [2]; [9]): not significantly different
blastocyst rate, trend with concentration (porcine oocytes [2]; [10]): decreased with the increase of UK5099 concentration
cleavage rate, trend with concentration (porcine oocytes [2]; [10]): decreased with the increase of UK5099 concentration
Survival rate (%) ([3]; UK5099 pretreatment before vitrification, P>0.05): 67.50% and 67.50^b(135/200) %

CN(C)C(=N)N=C(N)N [metformin]
mitochondrial temperature (porcine oocytes [1]; 400 μM metformin treatment for 1 h, P<0.05): significantly reduce mitochondrial temperature
cleavage rate (porcine oocytes [2]; metformin pretreatment group vs control group, after parthenogenetic activation, day 2): no significant difference
blastocyst development rate (porcine oocytes [2]; metformin pretreatment group vs control group, after parthenogenetic activation, day 7): no significant difference
plasma membrane fluidity (porcine oocytes [4]): significantly decreased
Survival rate (%) ([3]; pretreated with 400 μM metformin for 1 h before vitrification, P<0.05): 81.36%
Survival rate (%) ([3]; pretreated with 400 μM metformin for 1 h before vitrification, P<0.05, listed as Metformin): 81.36^c(179/330) %
mitochondrial temperature of vitrified oocytes after thawing (vitrified oocytes [5]): significantly higher than that of the conventional freezing group
size of lipid droplets in oocytes (vitrified oocytes [6]): close to that of the fresh group
